Test [1] concerns mice sensitized to ovalbumin and exposed to inhaled ovalbumin. Nature of the test: Murine model of airway contraction in allergic asthma (ovalbumin), airway resistance. In kind it is in vivo. Particulars: given 48 hours after OVA exposure, 50 μl of 1-2 mg/ml by oropharyngeal aspiration, compared to saline placebo. The procedure:
(§1) Measurements of respiratory mechanics were made by the forced oscillation technique. Response to aerosolized methacholine (0, 10 mg/ml, 25 mg/ml, and 100 mg/ml) was determined by resistance measurements every 30 seconds for 5 minutes, ensuring the parameters calculated had peaked. The resistance measurements were then averaged at each dose and graphed (RT, measured in cm H2O/ml/s) along with the initial baseline measurement.
(§2) In the following studies to evaluate the effect of heparosan, mice were exposed to one of several agents: sHA (50 μl of a 1 mg/ml sHA solution in PBS—sonicated Healon, AMO Inc., Santa Ana, Calif.); 1 ppm ozone (O3) for 4 hours; or inhaled OVA (sensitization with i.p. injection of 10 μg OVA (Sigma, St. Louis, Mo.), adsorbed to 2 mg of alum adjuvant (Pierce Biotechnology, Inc., Rockford, Ill.) diluted in saline on days 0 and 7, 60 minutes inhaled exposure to 1% OVA aerosol on days 14 and 15). Mice were phenotyped for AHR at typical time points for each of these exposures: 2 hours after sHA instillation; 24 hours after ozone exposure; and 48 hours after second OVA exposure. Thirty minutes prior to phenotyping, mice received appropriate treatment (saline, heparosan or heparin) by oropharyngeal aspiration. Mice received 50 μl of a 1-2 mg/ml solution of heparosan or heparin (or 50 μl of saline as a control). […]

The test system of test [2] is mice exposed to ozone. Description: Murine model of airway contraction after ozone exposure, airway resistance. Particulars: 1 ppm ozone for 4 hours, given 24 hours after exposure, 50 μl of 1-2 mg/ml by oropharyngeal aspiration, compared to saline placebo. The format is in vivo. How it is done: as §1, §2
For test [3], the system named is mice exposed to sHA. Description: In vivo model of airway contraction (AHR) after sHA instillation, airway resistance to methacholine. Particulars: 50 μl of 1-2 mg/ml by oropharyngeal aspiration, methacholine challenge 2 hours after sHA, compared to sHA with saline. How it is done: as §1, §2
For test [4], the system named is human airway smooth muscle cells (ASMC). Nature of the test: Gel contraction: human airway smooth muscle cells in 3-dimensional collagen-hyaluronan gels. The format is cell-based. How it is done:
The in vitro effect of heparosan on human airway smooth muscle cells (ASMC) was tested in 3-dimensional, collagen-hyaluronan gels. Collagen-only gels were used as controls. Human ASMC (6×10^5 cells/ml) in basal media were seeded into the gel solution and incubated up to 36 hours at 37° C. in 5% CO2. Gels were scanned at varying time intervals to monitor gel contraction. After 24 hours, the gels were fixed with 4% paraformaldehyde and stained with phalloidin and DAPI. In some experiments, the ROCK inhibitor Y-27632 was added to the gel. Change in gel area was measured by NIH Image J software.

Test [5] relates to mouse tracheal rings. Nature of the test: Tracheal ring assay, in vitro model of mouse airway smooth muscle cell contractility. Particulars: for effect on sHA-exaggerated contractile response of tracheal rings to carbachol: 1 mg/mL sHA+0.5 mg/mL oHA. The format is cell-based. The procedure:
Airway smooth muscle reactivity was assessed in temperature-controlled (37° C.) organ baths containing Krebs-Henseleit buffer solution of the following composition: 118 mM NaCl, 4.7 mM KCl, 2.5 mM CaCl2, 1.2 mM MgSO4, 25 mM NaHCO3, 1.2 mM KH2PO4, and 11.1 mM glucose, continuously bubbled with 5% CO2 and 95% O2. Tracheal segments were mounted in organ baths between two metal hooks and connected to a K30 force displacement transducer under approximately 5-mN resting tension. Isometric contractile responses were recorded after dosing with carbachol (a bronchial constrictor) and isoproterenol (a bronchial dilator).

Test [6] relates to mice exposed to inhaled endotoxin (LPS). Description: Murine model of inflammatory asthma (inhaled endotoxin/LPS), airway resistance. The format is in vivo. Particulars: for airway resistance after inhaled endotoxin (LPS) exposure: LPS+oHA, 50 μl of 1.5 mg/ml oHA by oropharyngeal aspiration after exposure. How it is done: as §1
In the following studies to evaluate the effect of oHA, mice were exposed to sHA (50 μl of a 1 mg/ml sHA solution in PBS—sonicated Healon, AMO Inc., Santa Ana, Calif.) or inhaled endotoxin (5 μg/m^3) over 2.5 hours. Mice were phenotyped for AHR at typical time points for each of these exposures: 2 hours after sHA instillation; or 4 hours after endotoxin exposure. Thirty minutes prior to phenotyping, mice received appropriate treatment (saline, vehicle or oHA) by oropharyngeal aspiration. Mice were treated with 50 μl of 1.5 mg/ml oHA. Phenotyping was with invasive airway pressure measurements (FlexiVent™).

Entries after “also recorded” stand apart in the source; their conditions may differ.

Take heparin [reference compound]: the “airway resistance in ovalbumin allergic asthma model” value in test [1] was “increased the development of airway resistance”. In addition, the “airway resistance after ozone exposure” value in test [2] was “had no effect on airway resistance beyond saline”. Moreover, in test [3], the “airway resistance after sHA exposure” value was “increased the development of airway resistance”.
Take heparosan: the “airway resistance in ovalbumin allergic asthma model” value in test [1] is listed as “led to decreased airway resistance compared to saline placebo treatment”. Moreover, in test [4] (collagen-hyaluronan gel, change in gel area), the “effect on sHA-induced contraction of gel containing human ASMC” value is “inhibited this action, and was indistinguishable from control cells”. The “airway resistance after ozone exposure” value in test [2] is recorded as “led to decreased airway resistance compared to saline placebo treatment”. Besides, in test [5], the “effect on sHA-exaggerated contractile response of tracheal rings to carbachol” value is “ameliorates tracheal ring contractility”. Further, the “airway resistance after inhaled endotoxin (LPS) exposure” value in test [6] is “inhibits inflammatory AHR”. Further, in test [3], the “airway resistance after sHA exposure” value was “decreased the development of airway resistance”.
As to hyaluronan oligosaccharide [oHA], the “effect on sHA-exaggerated contractile response of tracheal rings to carbachol” value in test [5] is reported as “inhibited this action”. For the same substance, in test [6], the “airway resistance after inhaled endotoxin (LPS) exposure” value is given as “led to decreased airway resistance”. Also, the “airway contractility without LPS exposure” value in test [6] (saline+oHA (oHA alone)) was “had no effect on airway contractility”.
For “short fragment hyaluronan [sHA, reference compound]”, in test [4] (sHA alone, versus collagen-only control gels), the “contraction of gel containing human ASMC” value is “led to rapid contraction of a gel containing human ASMC; also recorded: led to rapid contraction of a gel containing haSMC”. Besides, the “contractile response of tracheal rings to carbachol” value in test [5] (1 mg/mL sHA versus 0 mg/mL sHA) was “led to an exaggerated contractile response of mouse tracheal rings to the constrictor substance carbachol”.

The values are drawn from US9717752B2, “Uses of antagonists of hyaluronan signaling” (The United States of America, as represented by the …, priority 2012, dated 2017).
